Source: patent US20080114047A1 (priority 2003, published 2008)
Values joined by “and” are separate entries in the source; they are usually repeats but may differ in a detail not shown here. Identical values can stand only once. Like-named read-outs stand apart in the source and are kept apart here.

Legend:
[1] = system: L. donovani axenic amastigotes; assay: In vitro anti-leishmania activity (IC50 vs. L. donovani axenic amastigotes); assay type: cell-based; details: Leishmania donovani
[2] = system: Trypanosoma brucei rhodesiense; assay: Anti-protozoan data: T.b.r. IC50; assay type: cell-based; details: read-out: T.b.r. IC50
Trypanosoma cruzi = assay: Anti-protozoan data: T. cruzi IC50; assay type: cell-based; details: read-out: T. cruzi IC50
Plasmodium falciparum = assay: Anti-protozoan data: P. falcip. IC50; assay type: cell-based; details: read-out: P. falcip. IC50
Candida albicans = assay: Anti-fungal data: Candida albicans; assay type: cell-based
Aspergillus fumigatus = assay: Anti-fungal data: Aspergillus fumigatus; assay type: cell-based
[3] = system: Mycobacterium tuberculosis; assay: Compounds tested against Mycobacterium tuberculosis (MIC90); assay type: cell-based
[4] = Tables VI(a), VI(c), read-out: Leishmania donovani IC50
[5] = axenic amastigotes, Tables I-V, read-out: IC50 vs. L. donovani
[6] = Table VII(b), read-out: M. tb MIC90

SMILES | IC50 [1, 4] [µM] | IC50 ([2]; Tables VI(a), VI(c)) [µM] | IC50 (Trypanosoma cruzi; Tables VI(a), VI(c)) [µM] | IC50 (Plasmodium falciparum; Tables VI(a), VI(c)) [µM] | melting point [°C] | IC50 (in vitro) [µM] | MFC (Candida albicans; strain A39) [µg/mL] | MIC80 (Candida albicans; strain A39) [µg/mL] | MIC (Candida albicans; strain A39, read-out: Candida albicans (A39) MIC100) [µg/mL] | MIC80 (Aspergillus fumigatus; strain DUMC 168.95) [µg/mL] | MIC (Aspergillus fumigatus; strain DUMC 168.95, read-out: Aspergillus. Fumigatus (DUMC 168.95) MIC100) [µg/mL] | IC50 [1, 5] [µM] | MIC90 ([3]; read-out: M. tb. MIC90) | IC50 ([1]; read-out: L. Donovani IC50) [µM] | IC50 [2] [µM] | IC50 (Trypanosoma cruzi) [µM] | IC50 (Plasmodium falciparum) [µM] | MIC90 [3, 6]
Cl.Cl.c1cc(OCCCCCOc2ccc(C3=NCCN3)cc2)cc(-c2cc3cc(C4=NCCN4)ccc3o2)c1 [Compound 40, 2-(2-(3-(5-(4-(4,5-Dihydro-1H-imidazol-2-yl)phenoxy)pentyloxy)phenyl)benzofuran-5-yl)-4,5-dihydro-1H-imidazole dihydrochloride] | 16.6 ± 6.2 | 0.597 | 7.88 | 0.099 | 180 to 182 | 2.62 |  |  |  |  |  |  |  |  |  |  |  | 
Cl.Cl.c1cc(C2=NCCN2)ccc1OCCCOc1ccc(-c2cc3cc(C4=NCCN4)ccc3o2)cc1 [Compound 46, 2-(2-(4-(3-(4-(4,5-Dihydro-1H-imidazol-2-yl)phenoxy)propoxy)phenyl)benzofuran-5-yl)-4,5-dihydro-1H-imidazole dihydrochloride] |  | 0.0606 | 7.6 | 0.0432 | 262 to 263 | 10.3 | 10 | 10 | 10 | 10 | > 100 |  |  |  |  |  |  | 
Cl.Cl.N=C(N)c1ccc(OCCCOc2cccc(-c3cc4ccc(C(=N)N)cc4o3)c2)cc1 [Compound 56, 2-(3-(3-(4-Carbamimidoylphenoxy)propoxy)phenyl)benzofuran-6-carboxamidine dihydrochloride] | 11.2 ± 0.28 | 0.327 | 11.1 | 0.084 | 196 to 200 | 19.8 |  |  |  |  |  | 11.2 ± 0.28 | 1.02 µg/mL and 1.93 µM |  |  |  |  | 
CC(C)NC(=N)c1ccc(OCCCOc2cccc(-c3cc4ccc(C(=N)NC(C)C)cc4o3)c2)cc1.Cl.Cl [Compound 57, 2-(3-(3-(4-(N-Isopropylcarbamimidoyl)phenoxy)propoxy)phenyl)-N-isopropylbenzofuran-6-carboxamidine dihydrochloride] | 10.6 ± 6.42 | 0.483 | 69.8 | 0.202 | 213 to 217 | 82.3 |  |  |  |  |  | 10.6 ± 6.42 |  |  |  |  |  | 
Cl.Cl.c1cc(OCCCOc2ccc(C3=NCCN3)cc2)cc(-c2cc3ccc(C4=NCCN4)cc3o2)c1 [Compound 58, 2-(2-(3-(3-(4-(4,5-Dihydro-1H-imidazol-2-yl)phenoxy)propoxy)phenyl)benzofuran-6-yl)-4,5-dihydro-1H-imidazole dihydrochloride] | 4.73 ± 1.71 | 1.08 | 7.32 | 0.0952 | 208 to 211 | 10.1 |  |  |  |  |  | 4.73 ± 1.71 |  |  |  |  |  | 
Cl.Cl.c1cc(OCCCCOc2ccc(C3=NCCN3)cc2)cc(-c2cc3ccc(C4=NCCN4)cc3o2)c1 [Compound 61, 2-(2-(3-(4-(4-(4,5-Dihydro-1H-imidazol-2-yl)phenoxy)butoxy)phenyl)benzofuran-6-yl)-4,5-dihydro-1H-imidazole dihydrochloride] | 7.38 ± 2.55 | 2.86 | 8.92 | 0.0976 | 198 to 200 | 5.84 |  |  |  |  |  | 7.38 ± 2.55 |  |  |  |  |  | 
CC(C)NC(=N)c1ccc(OCCCCCOc2cccc(-c3cc4ccc(C(=N)NC(C)C)cc4o3)c2)cc1.Cl.Cl [Compound 63, 2-(3-(5-(4-(N-Isopropylcarbamimidoyl)phenoxy)pentyloxy)phenyl)-N-isopropylbenzofuran-6-carboxamidine dihydrochloride] | 8.92 ± 0.71 | 0.911 | 29.7 | 0.294 | 253 to 255 | 20.1 |  |  |  |  |  | 8.92 ± 0.71 |  |  |  |  |  | 
Cl.Cl.c1cc(OCCCCCOc2ccc(C3=NCCN3)cc2)cc(-c2cc3ccc(C4=NCCN4)cc3o2)c1 [Compound 64, 2-(2-(3-(5-(4-(4,5-Dihydro-1H-imidazol-2-yl)phenoxy)pentyloxy)phenyl)benzofuran-6-yl) -4,5-dihydro-1H-imidazole dihydrochloride] | 16.5 ± 3.45 | 0.442 | 3.62 | 0.0469 | 188 to 190 | 3.7 |  |  |  |  |  | 16.5 ± 3.45 |  |  |  |  |  | 
CC(C)NC(=N)c1ccc(OCCCCOc2ccc(-c3cc4ccc(C(=N)NC(C)C)cc4o3)cc2)cc1.Cl.Cl [Compound 72, 2-(4-(4-(4-(N-Isopropylcarbamimidoyl)phenoxy)butoxy)phenyl)-N-isopropylbenzofuran-6-carboxamidine dihydrochloride] | 4.52 ± 1.81 | 1.75 | 12.5 | 0.139 | 280 to 283 | 15.9 |  |  |  |  |  | 4.52 ± 1.81 |  |  |  |  |  | 
Cl.Cl.c1cc(C2=NCCN2)ccc1OCCCCOc1ccc(-c2cc3ccc(C4=NCCN4)cc3o2)cc1 [Compound 73, 2-(2-(4-(4-(4-(4,5-Dihydro-1H-imidazol-2-yl)phenoxy)butoxy)phenyl)benzofuran-6-yl)-4,5-dihydro-1H-imidazole dihydrochloride] | 13.2 ± 0.86 | 0.942 | 9.82 | 0.0461 | 306 to 307 | 16.9 |  |  |  |  |  | 13.2 ± 0.86 |  |  |  |  |  | 
Cl.Cl.c1cc(C2=NCCN2)ccc1OCCCCCOc1ccc(-c2cc3ccc(C4=NCCN4)cc3o2)cc1 [Compound 76, 2-(2-(4-(5-(4-(4,5-Dihydro-1H-imidazol-2-yl)phenoxy)pentyloxy)phenyl)benzofuran-6-yl)-4,5-dihydro-1H-imidazole dihydrochloride] | 10.4 ± 0.78 | 0.262 | 2.12 | 0.028 | 212 to 215 | 3.2 |  |  |  |  |  | 10.4 ± 0.78 |  |  |  |  |  | 
Cl.Cl.c1cc(C2=NCCN2)ccc1OCCCCCCOc1ccc(-c2cc3ccc(C4=NCCN4)cc3o2)cc1 [Compound 79, 2-(2-(4-(6-(4-(4,5-Dihydro-1H-imidazol-2-yl)phenoxy)hexyloxy)phenyl)benzofuran-6-yl)-4,5-dihydro-1H-imidazole dihydrochloride] | 15.3 ± 1.72 | 0.224 | 2.15 | 0.0316 | 265 to 269 | 3.44 |  |  |  |  |  | 15.3 ± 1.72 | 2.14 µg/mL and 3.51 µM |  |  |  |  | 
N=C(N)c1cccc(-c2cc3cc(C(=N)N)ccc3o2)c1 [Compound 166, 2-(3-carbamimidoylphenyl)benzofuran-5-carboxamidine] |  |  |  |  |  | 21.2 |  |  |  |  |  | 5.82 ± 0.06 |  | 5.82 ± 0.06 | 0.0241 | 23.4 | 0.0191 | 11.9 µg/mL and 31.6 µM
CC(C)NC(=N)c1cccc(-c2cc3cc(C(=N)NC(C)C)ccc3o2)c1 [Compound 167, 2-(3-(N-isopropylcarbamimidoyl)phenyl)-N-isopropylbenzofuran-5-carboxamidine] |  |  |  |  |  | > 199 |  |  |  |  |  | 13.4 ± 0.64 |  | 13.4 ± 0.64 | 0.473 | > 199 | 0.331 | > 57.8 µg/mL and > 128 µM
c1cc(C2=NCCN2)cc(-c2cc3cc(C4=NCCN4)ccc3o2)c1 [Compound 168, 2-(3-(5-(4,5-dihydro-1H-imidazol-2-yl)benzofuran-2-yl)phenyl)-4,5-dihydro-1H-imidazole] |  |  |  |  |  | 33.9 |  |  |  |  |  | 23.7 ± 0.17 |  | 23.7 ± 0.17 | 0.0776 | 39.6 | 0.0758 | 10.8 µg/mL and 25.7 µM
CONC(=N)c1ccc2cc(CCCCCc3cc4ccc(C(=N)NOC)cc4o3)oc2c1 [Compound 187, 2-(5-(6-(N-Methoxycarbamimidoyl)benzofuran-2-yl)pentyl)-N-methoxybenzofuran-6-carboxamidine] | > 50 | 13.8 | 38.4 | 9.76 |  | 34.6 |  |  |  |  |  |  |  |  |  |  |  | 
CONC(=N)c1ccc2oc(CCCc3cc4cc(C(=N)NOC)ccc4o3)cc2c1 [Compound 188, 2-(3-(5-(N-Methoxycarbamimidoyl)benzofuran-2-yl)propyl)-N-methoxybenzofuran-5-carboxamidine] | > 100 | 8.37 | > 157 | > 1.7 |  | > 157 |  |  |  |  |  |  |  |  |  |  |  | 
CONC(=N)c1ccc2oc(CCCCc3cc4cc(C(=N)NOC)ccc4o3)cc2c1 [Compound 189, 2-(4-(5-(N-Methoxycarbamimidoyl)benzofuran-2-yl)butyl)-N-methoxybenzofuran-5-carboxamidine] | > 100 | 6.87 | 61.9 | ~2 |  | 74.3 |  |  |  |  |  |  |  |  |  |  |  | 
N=C(NO)c1ccc2oc(CCCCCc3cc4cc(C(=N)NO)ccc4o3)cc2c1 [Compound 192, 2-(5-(5-(N-Hydroxycarbamimidoyl)benzofuran-2-yl)pentyl)-N-hydroxybenzofuran-5-carboxamidine] | 14.3 ± 6.49 | 5 | 11.9 | > 1.9 |  | 27 |  |  |  |  |  |  |  |  |  |  |  | 
CONC(=N)c1ccc2oc(CCCCCc3cc4cc(C(=N)NOC)ccc4o3)cc2c1 [Compound 193, 2-(5-(5-(N-Methoxycarbamimidoyl)benzofuran-2-yl)pentyl)-N-methoxybenzofuran-5-carboxamidine] | > 100 | > 18.6 | 19.1 | > 1.86 |  | 35.6 |  |  |  |  |  |  | 4.25 µg/mL and 7.88 µM |  |  |  |  | 
